Entries after “also recorded” stand apart in the source; their conditions may differ. Like-named read-outs stand apart in the source and are kept apart here.
Experiments:
[1] = system: BIN67; experiment: CellTiter-Glo cell viability assay, BIN67; type: cell-based; conditions: Homo sapiens; BIN67, 72 hours treatment
Method: (§1) Cell viability was measured by the CellTiter -GlO® cell viability assay from Promega (Madison, Wis.). The CellTiter-GlO® Luminescent Cell Viability Assay is a homogeneous method to determine the number of viable cells in culture based on quantitation of the ATP present, which signals the presence of metabolically active cells. Following treatment, CellTiter-GlO® is added to treatment wells and incubated at 37° C. luminescence values were measured at using a Molecular Devices Spectramax microplate reader
(§2) Cells were grown to 70% confluency, trypsinized, counted, and seeded in 96 well flat-bottom plates at a final concentration of 2.5×10^3-5×10^3 cells/well (Day 0). Cells were allowed to incubate in growth media for 24 hours. Treatment with the test agents or standard agents began on Day 1 and continued for 72 hours. At the 72-hour timepoint, treatment containing media was removed. Viable cell numbers are quantified by the CellTiter-GlO® cell viability assay as described above. […]
(§3) For single agent and combination studies, data from each experiment was collected and expressed as % Cell Growth using the following calculation: […]
(§4) Where ftest is the fluorescence of the tested sample, and fvehicle is the fluorescence of the vehicle in which the drug is dissolved. […]

[2] = system: COV434; experiment: CellTiter-Glo cell viability assay, COV434; type: cell-based; conditions: Homo sapiens
Method: as §1, §2, §3, §4

[3] = system: SCCOHT-1; experiment: CellTiter-Glo cell viability assay, SCCOHT-1; type: cell-based; conditions: Homo sapiens; SCCOHT-1, 72 hours treatment
Method: as §1, §2, §3, §4

[4] = system: A204; experiment: CellTiter-Glo cell viability assay, A204; type: cell-based; conditions: Homo sapiens, read-out: anti-proliferative IC50
Method: as §1, §2, §3, §4

[5] = system: A427; experiment: CellTiter-Glo cell viability assay, A427; type: cell-based; conditions: Homo sapiens, A-427, read-out: anti-proliferative IC50
Method: as §1, §2, §3, §4

[6] = system: G401; experiment: CellTiter-Glo cell viability assay, G401; type: cell-based; conditions: Homo sapiens, G-401, read-out: anti-proliferative IC50
Method: as §1, §2, §3, §4

[7] = system: G402; experiment: CellTiter-Glo cell viability assay, G402; type: cell-based; conditions: Homo sapiens, G-402, read-out: anti-proliferative IC50
Method: as §1, §2, §3, §4

[8] = system: H522; experiment: CellTiter-Glo cell viability assay, H522; type: cell-based; conditions: Homo sapiens, NCI-H522; read-out: anti-proliferative IC50
Method: as §1, §2, §3, §4

[9] = system: SCCOHT cell lines (BIN67, COV434, and SCCOHT-1); experiment: Cell proliferation assays, three SCCOHT cell lines; type: cell-based; conditions: Homo sapiens; range over BIN67, COV434, SCCOHT-1
Method: as §1, §2, §3, §4

[10] = system: Dual SMARCA2 and SMARCA4 deficient cell lines (A204, G401, G402, H522, and A427); experiment: Proliferation assays, dual SMARCA2 and SMARCA4 deficient cell lines; type: cell-based; conditions: range over A204, G401, G402, H522, A427
Method: as §1, §2, §3, §4

[11] = system: SMARCA2 gene expression in BIN-67 cells; experiment: SMARCA2 gene expression in treated BIN-67 cells; type: cell-based, human; conditions: in vitro treatment
[12] = system: SMARCA2 protein expression in BIN-67 cells; experiment: SMARCA2 protein expression in treated BIN-67 cells; type: cell-based, human; conditions: in vitro treatment
[13] = system: BIN67 human tumor xenografts; experiment: SCCOHT xenograft model (BIN-67); type: in vivo, mice; conditions: for mean tumor regression: BIN67 xenografts in mice, two weeks post-treatment initiation
Method: In vivo treatment of tumors in an SCCOHT xenograft model (BIN-67) was evaluated. In vivo xenograft tumors from SCCOHT cell line BIN-67 were dosed with (S)-N-hydroxy-2-(2-(4-methoxyphenyl)butanamido)thiazole-5-carboxamide (i.e., GB-3103) for 60 days.

[14] = system: G401 human malignant rhabdoid tumor xenografts; experiment: Malignant rhabdoid tumor xenograft model (G401); type: in vivo, mice
Method: In vivo treatment of tumors in a malignant rhabdoid tumor xenograft model (G401) was evaluated. In vivo xenograft tumors from MRT line G401 were dosed with (S)-N-hydroxy-2-(2-(4-methoxyphenyl)butanamido)thiazole-5-carboxamide (i.e., GB-3103) for 30 days.

[15] = system: CT-26 tumors; experiment: Syngeneic CT-26 mouse colon cancer model; type: in vivo
Source text: Given the importance of MHC Class II expression and response to checkpoint inhibitor therapies, we tested the activity of GB-3103 alone and in combination with anti-mPD-1 and anti-mPD-L1 antibodies in a syngeneic CT-26 mouse colon cancer model. […] However, tumor growth resumed on Day 15 and continued to increase until Day 26 (see FIG. 7).

[16] = system: BIN67 cells; experiment: RNA-Seq analyses of treated BIN67 cells; type: cell-based, human
[17] = target: HDAC1 (Homo sapiens, UniProt Q13547); experiment: HDAC isoform inhibition, HDAC1; type: biochemical
Source text: (§5) In contrast to pan-HDAC inhibition, isoform restricted HDAC inhibition revokes immune privilege. HDAC3 has emerged as a key target to enhance immune function: • Decrease in Treg suppressive function • Increase in Natural Killer Cell ligand expression on tumors • Enhance macrophage host defense activity • Upregulation of PD-L1 expression and increased sensitivity to anti-PD1 treatments HDAC6 inhibition has potent immunomodulatory benefits including: • Decrease in expression of the anti-inflammatory cytokine IL-10 • Enhanced expression of MHC class I/II genes and increased expression of known tumor antigens • Decreased immunosuppression and enhanced immune function of melanoma patient T-cells

[18] = target: HDAC2 (Homo sapiens, UniProt Q92769); experiment: HDAC isoform inhibition, HDAC2; type: biochemical
Source text: as §5

[19] = target: HDAC3 (Homo sapiens, UniProt O15379); experiment: HDAC isoform inhibition, HDAC3; type: biochemical
Source text: as §5

[20] = target: HDAC4 (Homo sapiens, UniProt P56524); experiment: HDAC isoform inhibition, HDAC4; type: biochemical
Source text: as §5

[21] = target: HDAC5 (Homo sapiens, UniProt Q9UQL6); experiment: HDAC isoform inhibition, HDAC5; type: biochemical
Source text: as §5

[22] = target: HDAC6 (Homo sapiens, UniProt Q9UBN7); experiment: HDAC isoform inhibition, HDAC6; type: biochemical
Source text: as §5

[23] = target: HDAC7 (Homo sapiens, UniProt Q8WUI4); experiment: HDAC isoform inhibition, HDAC7; type: biochemical
Source text: as §5

[24] = target: HDAC8 (Homo sapiens, UniProt Q9BY41); experiment: HDAC isoform inhibition, HDAC8; type: biochemical
Source text: as §5

[25] = target: HDAC9 (Homo sapiens, UniProt Q9UKV0); experiment: HDAC isoform inhibition, HDAC9; type: biochemical
Source text: as §5

[26] = target: HDAC10 (Homo sapiens, UniProt Q969S8); experiment: HDAC isoform inhibition, HDAC10; type: biochemical
Source text: as §5

[27] = target: HDAC11 (Homo sapiens, UniProt Q96DB2); experiment: HDAC isoform inhibition, HDAC11; type: biochemical
Source text: as §5

Sequence of HDAC6 (Q9UBN7 whole entry, canonical isoform): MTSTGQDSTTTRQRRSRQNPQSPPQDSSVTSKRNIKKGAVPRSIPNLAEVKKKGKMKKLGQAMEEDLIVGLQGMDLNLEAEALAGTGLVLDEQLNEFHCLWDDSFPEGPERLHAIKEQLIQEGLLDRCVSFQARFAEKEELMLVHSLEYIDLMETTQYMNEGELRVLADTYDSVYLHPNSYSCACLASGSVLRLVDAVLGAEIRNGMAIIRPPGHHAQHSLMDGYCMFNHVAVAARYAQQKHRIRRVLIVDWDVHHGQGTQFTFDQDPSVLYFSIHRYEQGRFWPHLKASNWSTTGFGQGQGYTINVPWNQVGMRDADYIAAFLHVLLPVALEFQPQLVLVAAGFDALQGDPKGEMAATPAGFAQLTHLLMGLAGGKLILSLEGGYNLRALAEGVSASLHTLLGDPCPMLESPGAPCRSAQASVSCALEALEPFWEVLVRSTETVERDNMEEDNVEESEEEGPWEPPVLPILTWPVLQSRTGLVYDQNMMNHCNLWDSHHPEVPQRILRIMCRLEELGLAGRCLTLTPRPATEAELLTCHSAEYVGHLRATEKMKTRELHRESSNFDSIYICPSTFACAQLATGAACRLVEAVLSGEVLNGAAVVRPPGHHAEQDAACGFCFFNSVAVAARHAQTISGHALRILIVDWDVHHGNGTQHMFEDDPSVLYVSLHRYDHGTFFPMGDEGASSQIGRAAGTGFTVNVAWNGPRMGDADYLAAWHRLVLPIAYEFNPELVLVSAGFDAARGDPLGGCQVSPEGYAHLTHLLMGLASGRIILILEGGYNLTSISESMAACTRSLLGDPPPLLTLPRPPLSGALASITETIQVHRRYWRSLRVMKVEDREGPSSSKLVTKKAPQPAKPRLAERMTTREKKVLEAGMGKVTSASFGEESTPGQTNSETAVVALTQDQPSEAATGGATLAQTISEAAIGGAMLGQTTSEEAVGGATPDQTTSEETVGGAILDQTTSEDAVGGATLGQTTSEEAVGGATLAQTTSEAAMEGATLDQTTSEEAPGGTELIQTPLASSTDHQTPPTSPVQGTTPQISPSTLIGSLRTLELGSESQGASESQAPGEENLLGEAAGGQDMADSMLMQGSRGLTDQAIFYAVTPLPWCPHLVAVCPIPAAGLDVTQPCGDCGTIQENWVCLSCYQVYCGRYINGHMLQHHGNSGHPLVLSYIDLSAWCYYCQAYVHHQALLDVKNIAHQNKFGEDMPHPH
Sequence of HDAC7 (Q8WUI4 whole entry, canonical isoform): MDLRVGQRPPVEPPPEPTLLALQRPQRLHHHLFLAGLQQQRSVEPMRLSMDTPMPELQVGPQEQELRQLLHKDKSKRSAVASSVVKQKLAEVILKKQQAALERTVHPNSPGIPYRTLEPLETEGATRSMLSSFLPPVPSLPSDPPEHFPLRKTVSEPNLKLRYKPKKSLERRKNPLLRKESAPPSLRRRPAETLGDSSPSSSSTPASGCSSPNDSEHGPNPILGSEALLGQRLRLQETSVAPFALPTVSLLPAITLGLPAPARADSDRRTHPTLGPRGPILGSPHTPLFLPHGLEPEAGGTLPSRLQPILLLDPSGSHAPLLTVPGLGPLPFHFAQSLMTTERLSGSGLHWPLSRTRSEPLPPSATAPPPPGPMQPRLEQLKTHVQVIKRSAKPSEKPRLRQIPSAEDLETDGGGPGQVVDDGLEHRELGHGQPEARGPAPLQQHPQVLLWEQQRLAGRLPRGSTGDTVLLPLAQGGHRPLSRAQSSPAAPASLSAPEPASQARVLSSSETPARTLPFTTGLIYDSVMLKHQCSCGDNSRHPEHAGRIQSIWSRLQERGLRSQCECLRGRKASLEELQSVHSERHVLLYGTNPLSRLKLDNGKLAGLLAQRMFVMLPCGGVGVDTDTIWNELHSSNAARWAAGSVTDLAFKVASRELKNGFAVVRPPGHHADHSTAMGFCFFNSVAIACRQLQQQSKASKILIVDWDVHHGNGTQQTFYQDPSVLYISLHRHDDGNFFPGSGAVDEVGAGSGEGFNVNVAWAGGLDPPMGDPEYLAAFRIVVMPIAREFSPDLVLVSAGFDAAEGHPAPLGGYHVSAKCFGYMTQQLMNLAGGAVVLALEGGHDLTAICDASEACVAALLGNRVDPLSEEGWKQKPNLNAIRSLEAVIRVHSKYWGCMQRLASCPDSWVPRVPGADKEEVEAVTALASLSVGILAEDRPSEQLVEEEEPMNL
Sequence of HDAC8 (Q9BY41 whole entry, canonical isoform): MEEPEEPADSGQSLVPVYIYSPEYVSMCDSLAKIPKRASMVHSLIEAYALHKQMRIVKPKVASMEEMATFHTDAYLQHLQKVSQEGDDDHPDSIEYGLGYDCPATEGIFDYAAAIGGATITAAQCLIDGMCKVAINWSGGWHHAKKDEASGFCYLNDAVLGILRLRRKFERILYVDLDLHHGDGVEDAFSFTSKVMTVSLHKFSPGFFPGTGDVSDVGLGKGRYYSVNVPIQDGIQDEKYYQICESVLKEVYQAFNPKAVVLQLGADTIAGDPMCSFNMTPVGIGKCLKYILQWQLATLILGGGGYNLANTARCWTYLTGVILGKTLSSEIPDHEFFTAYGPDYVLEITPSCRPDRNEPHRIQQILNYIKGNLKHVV
Sequence of HDAC1 (Q13547 whole entry, canonical isoform): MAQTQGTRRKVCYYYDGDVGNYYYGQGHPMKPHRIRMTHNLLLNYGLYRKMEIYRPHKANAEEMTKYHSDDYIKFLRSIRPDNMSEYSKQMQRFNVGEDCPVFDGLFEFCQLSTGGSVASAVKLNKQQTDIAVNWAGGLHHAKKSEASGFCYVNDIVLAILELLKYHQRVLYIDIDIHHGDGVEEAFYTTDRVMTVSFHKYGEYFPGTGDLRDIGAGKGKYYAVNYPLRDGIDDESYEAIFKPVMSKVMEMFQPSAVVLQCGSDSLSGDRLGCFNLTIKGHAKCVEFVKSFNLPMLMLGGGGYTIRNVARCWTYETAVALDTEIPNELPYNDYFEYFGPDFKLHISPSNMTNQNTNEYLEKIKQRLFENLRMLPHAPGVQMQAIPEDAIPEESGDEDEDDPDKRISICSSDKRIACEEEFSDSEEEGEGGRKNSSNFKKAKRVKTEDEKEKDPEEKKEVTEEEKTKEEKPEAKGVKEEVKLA
Sequence of HDAC4 (P56524 whole entry, canonical isoform): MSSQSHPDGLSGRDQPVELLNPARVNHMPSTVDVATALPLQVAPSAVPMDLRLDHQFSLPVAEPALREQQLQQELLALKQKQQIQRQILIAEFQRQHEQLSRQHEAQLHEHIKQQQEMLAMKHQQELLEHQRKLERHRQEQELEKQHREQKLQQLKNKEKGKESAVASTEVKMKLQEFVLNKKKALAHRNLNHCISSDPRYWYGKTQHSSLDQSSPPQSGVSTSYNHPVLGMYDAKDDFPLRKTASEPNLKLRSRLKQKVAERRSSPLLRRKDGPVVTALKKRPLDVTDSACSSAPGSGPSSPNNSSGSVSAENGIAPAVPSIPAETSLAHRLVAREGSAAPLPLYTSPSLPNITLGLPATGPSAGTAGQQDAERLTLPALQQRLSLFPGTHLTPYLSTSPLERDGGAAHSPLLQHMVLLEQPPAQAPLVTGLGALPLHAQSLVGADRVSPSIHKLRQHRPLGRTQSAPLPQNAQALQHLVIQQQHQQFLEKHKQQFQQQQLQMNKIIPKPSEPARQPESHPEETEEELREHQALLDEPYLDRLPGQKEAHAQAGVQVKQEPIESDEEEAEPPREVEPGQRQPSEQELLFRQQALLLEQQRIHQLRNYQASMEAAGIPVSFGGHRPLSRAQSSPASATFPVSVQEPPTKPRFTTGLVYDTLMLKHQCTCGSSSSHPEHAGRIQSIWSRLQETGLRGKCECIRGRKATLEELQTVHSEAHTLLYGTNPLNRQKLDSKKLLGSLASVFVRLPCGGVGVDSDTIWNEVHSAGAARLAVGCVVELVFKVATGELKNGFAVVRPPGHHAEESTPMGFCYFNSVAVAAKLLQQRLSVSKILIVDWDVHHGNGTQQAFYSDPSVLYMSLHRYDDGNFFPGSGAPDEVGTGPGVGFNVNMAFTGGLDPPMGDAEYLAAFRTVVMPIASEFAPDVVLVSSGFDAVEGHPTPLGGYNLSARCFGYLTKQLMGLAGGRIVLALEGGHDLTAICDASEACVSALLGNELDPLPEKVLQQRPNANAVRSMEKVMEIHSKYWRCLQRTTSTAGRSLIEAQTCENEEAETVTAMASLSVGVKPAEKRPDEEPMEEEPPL
Sequence of HDAC2 (Q92769 whole entry, canonical isoform): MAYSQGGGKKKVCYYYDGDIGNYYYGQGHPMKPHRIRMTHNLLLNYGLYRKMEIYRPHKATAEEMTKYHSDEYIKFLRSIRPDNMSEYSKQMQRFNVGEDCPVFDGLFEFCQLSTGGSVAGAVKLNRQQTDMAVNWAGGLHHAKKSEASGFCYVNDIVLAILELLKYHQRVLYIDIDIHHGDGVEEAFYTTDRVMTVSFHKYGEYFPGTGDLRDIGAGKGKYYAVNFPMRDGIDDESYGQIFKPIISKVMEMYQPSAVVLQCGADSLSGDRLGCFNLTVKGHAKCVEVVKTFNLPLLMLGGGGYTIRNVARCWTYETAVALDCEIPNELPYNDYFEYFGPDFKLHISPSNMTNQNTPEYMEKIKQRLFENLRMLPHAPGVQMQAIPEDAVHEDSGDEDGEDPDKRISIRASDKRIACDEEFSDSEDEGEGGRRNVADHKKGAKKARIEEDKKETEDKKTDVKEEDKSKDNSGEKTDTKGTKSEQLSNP
Sequence of HDAC11 (Q96DB2 whole entry, canonical isoform): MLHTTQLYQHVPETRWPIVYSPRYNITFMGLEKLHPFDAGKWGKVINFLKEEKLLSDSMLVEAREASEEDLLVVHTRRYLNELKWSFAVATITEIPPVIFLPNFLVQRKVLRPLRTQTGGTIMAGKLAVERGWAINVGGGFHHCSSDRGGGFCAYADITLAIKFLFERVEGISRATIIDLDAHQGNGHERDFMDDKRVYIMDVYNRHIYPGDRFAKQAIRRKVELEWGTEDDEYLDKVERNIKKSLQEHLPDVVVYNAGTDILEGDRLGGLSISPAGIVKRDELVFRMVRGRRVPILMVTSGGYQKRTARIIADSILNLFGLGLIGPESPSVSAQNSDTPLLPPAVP

**Q.** Which results are given for `CC[C@H](C(=O)Nc1ncc(C(=O)NO)s1)c1ccc(OC)cc1` [GB-3103, (S)-N-hydroxy-2-(2-(4-methoxyphenyl)butanamido)thiazol-5-carboxamide]?
**A.** IC50 [1]: 0.051 µM; IC50 ([2]; COV434, read-out: anti-proliferative IC50): 0.035 µM; IC50 ([2]; COV434, 72 hours treatment, read-out: IC50): 0.035 µM; IC50 [3]: 0.293 µM; IC50 [4]: 0.095 µM; IC50 [5]: 0.174 µM; IC50 [6]: 0.138 µM; IC50 [7]: 0.071 µM; IC50 [8]: 0.102 µM; IC50 [9]: 0.051 to 0.293 µM; IC50 [10]: 0.05 to 0.2 µM; induction of SMARCA2 gene (mRNA) expression [11]: concentration and time dependent induction of SMARCA2 gene re-expression; also recorded: potent concentration- and time-dependent induction of SMARCA2 expression at both mRNA and protein levels; induction of SMARCA2 protein expression [12]: potent concentration- and time-dependent induction of SMARCA2 expression at both mRNA and protein levels; mean tumor regression ([13]; 5 mg/kg QD): 26%; mean tumor regression ([13]; 10 mg/kg QD): 33%; tumor volume compared to vehicle control tumors ([13]; BIN-67 xenograft, dosed for 60 days): statistically significant decreases in volume; tumor volume compared to vehicle control tumors ([14]; G401 xenograft, dosed for 30 days): statistically significant decreases in volume; tumor growth inhibition (TGI) compared to vehicle control ([14]; G401 xenografts in mice, 5 mg/kg, QD, P<0.05): 70%; effect on established tumors ([15]; CT-26 syngeneic model, combined with anti-mPD-1 antibody): regression of established CT-26 tumors; effect on established tumors ([15]; CT-26 syngeneic model, combined with anti-mPD-L1 antibody): regression of established CT-26 tumors; TGI ([15]; CT-26 syngeneic model, single agent): 93%; day on which tumor growth resumed ([15]; CT-26 syngeneic model, single agent, growth continued until Day 26): 15 days; tumor memory response ([15]; alone and in combination with anti-PD-1/anti-PD-L1 checkpoint modulators, mice): creates a tumor memory response preventing re-growth of tumors; RNA-Seq findings [16]: affects DNA replication and mRNA stability as well as inducing the expression of MHC Class II proteins; IC50 [17]: 0.001 µM; IC50 [18]: 0.0053 µM; IC50 [19]: 0.000565 µM; IC50 [20]: 0.138 µM; IC50 [21]: 0.0735 µM; IC50 [22]: 0.000706 µM; mode of inhibition of HDAC6 [22]: irreversible; IC50 [23]: 0.0345 µM; IC50 [24]: 0.133 µM; IC50 [25]: 0.187 µM; IC50 [26]: 0.00203 µM; IC50 [27]: 5.78 µM

Reference: US20220184040A1, “METHOD OF TREATING MALIGNANT RHABDOID TUMOR OF THE OVARY AND SMALL CELL CANCER OF THE OVARY OF THE HYPERCALCEMIC TYPE” (TRANSLATIONAL DRUG DEVELOPMENT, LLC, priority 2019, published 2022)
